Results as given in PubChem BioAssay (NCI).
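A five-concentration, 48-hour dose response in 96-well plates underlies each endpoint, interpolated linearly between surrounding concentrations. GI50: concentration for 50% inhibition of growth. At the TGI there is no net growth.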

Columns and labels:
Experiment in all cases: growth of human tumour cells (NCI), 48 h
HCC-2998 colon = system: HCC-2998 colon
HL-60(TB) leukemia = system: HL-60(TB) leukemia
SK-OV-3 ovarian = system: SK-OV-3 ovarian
U251 CNS = system: U251 CNS
HOP-92 NSCLC = system: HOP-92 NSCLC
COLO 205 colon = system: COLO 205 colon
SN12C renal = system: SN12C renal
HS 578T breast = system: HS 578T breast
OVCAR-4 ovarian = system: OVCAR-4 ovarian
SR leukemia = system: SR leukemia

| Compound | GI50 (HCC-2998 colon) [µM] | TGI (HCC-2998 colon) [µM] | GI50 (HL-60(TB) leukemia) [µM] | TGI (HL-60(TB) leukemia) [µM] | GI50 (SK-OV-3 ovarian) [µM] | TGI (SK-OV-3 ovarian) [µM] | GI50 (U251 CNS) [µM] | TGI (U251 CNS) [µM] | GI50 (HOP-92 NSCLC) [µM] | TGI (HOP-92 NSCLC) [µM] | GI50 (COLO 205 colon) [µM] | TGI (COLO 205 colon) [µM] | GI50 (SN12C renal) [µM] | TGI (SN12C renal) [µM] | GI50 (HS 578T breast) [µM] | TGI (HS 578T breast) [µM] | GI50 (OVCAR-4 ovarian) [µM] | TGI (OVCAR-4 ovarian) [µM] | TGI (SR leukemia) [µM] | GI50 (SR leukemia) [µM] |
| --- | --- | --- | --- | --- | --- | --- | --- | --- | --- | --- | --- | --- | --- | --- | --- | --- | --- | --- | --- | --- |
| O=C(c1ccccc1)c1nc2ccc(C(F)(F)F)cc2[n+]([O-])c1C(F)(F)F | 30.1 | > 100 | 19 | 52.5 | 27.4 | > 100 | 50.3 | > 100 | 15.1 | 78.5 | 26.8 | > 100 | 54 | > 100 | 52.6 | > 100 | 22.4 | > 100 | – | – |
| CCCCCCCCCCCCN(O)C(=O)c1ccccc1 | – | > 100 | – | 54.8 | – | 92.1 | – | 29.8 | – | 71.8 | – | – | – | 71.4 | – | – | – | – | > 100 | – |
| O=C(CCCCCCSc1nc(-c2ccc(Cl)cc2)cc(-c2ccc(Cl)cc2)n1)NO | 4.64 | 17 | 1.97 | > 50 | 1.32 | 4.19 | 1.63 | 6.08 | 1.61 | 8.39 | 1.55 | 8.04 | 1.6 | 6.24 | 3.23 | > 50 | 1.57 | > 50 | – | – |
| O=C1C2c3[nH]c4ccccc4c3[C@@H]3CCCCC3C2C(=O)N1c1ccccc1 (stereo partly specified) | – | 36.5 | – | 47.5 | – | 72.5 | – | 28 | – | – | – | 33.6 | – | 32.4 | – | – | – | 75 | 77.8 | – |
| O=C1c2c(O)cc(O)cc2OC(c2ccc(O)cc2O)C1O (stereo unspecified) | > 100 | > 100 | > 100 | > 100 | > 100 | > 100 | > 100 | > 100 | > 100 | > 100 | > 100 | > 100 | > 100 | > 100 | – | > 100 | > 100 | > 100 | – | – |
| O=C(NCCCCCCCCNC(=O)c1cccc2ccccc12)c1cccc2ccccc12 | – | > 100 | – | > 100 | – | 41.6 | – | 45.6 | – | 20.4 | – | > 100 | – | > 100 | – | – | – | 19 | > 100 | – |
| Cc1ccc2[nH]c3c(ncc4[nH]c5ccccc5c43)c2c1 | – | 30.2 | – | 36.3 | – | 25.2 | – | 28 | – | – | – | 34.3 | – | 30.2 | – | – | – | 37.9 | – | – |
| Cn1c(=S)c2[nH]c(SCCN3CCCC3)nc2n(C)c1=O | – | – | – | > 100 | – | > 100 | – | > 100 | – | > 100 | – | > 100 | – | > 100 | – | > 100 | – | > 100 | > 100 | – |
| CCC(C(=O)[O-])C(=O)[O-].CCC(C(=O)[O-])C(=O)[O-].N.N.NCCCCCCN.[Pt+4].[Pt+4] | 8.29 | 15.8 | 1.68 | 4.63 | 10.3 | 18.3 | 8.8 | 16.5 | 1.24 | 3.87 | 0.883 | 1.66 | 8.66 | 17.1 | – | – | 5.85 | 13 | 35.4 | 6.11 |
| CC1=C(c2cc(C(=O)Nc3cccc(C(F)(F)F)c3)ncn2)Sc2ccccc2N1 | – | – | – | > 100 | – | > 100 | – | > 100 | – | > 100 | – | > 100 | – | > 100 | – | – | – | > 100 | > 100 | – |
| O=C(NNC(=O)c1cc(/C=C/c2cccc([N+](=O)[O-])c2)[nH]c(=S)n1)Nc1ccc(Cl)cc1 | – | > 100 | – | 84.1 | – | > 100 | – | 30.2 | – | – | – | 37.2 | – | > 100 | – | – | – | – | 9.76 | – |
| COC12CC(=O)C(C(C)=O)=C(O)C1(C)c1c(OC(C)=O)c(C)c(O)c(C(C)=O)c1O2 (stereo unspecified) | – | 84 | – | 42.5 | – | – | – | > 100 | – | 52 | – | – | – | 64.7 | – | – | – | > 100 | > 100 | – |
| O=C(CC(=O)C1CCOC1=O)C(=O)Nc1ccc(Cl)cc1Cl (stereo unspecified) | – | > 100 | – | > 100 | – | > 100 | – | > 100 | – | > 100 | – | > 100 | – | > 100 | – | – | – | > 100 | – | – |
| COc1ccc(C(=O)COc2cccc(/C=C3\CSc4ccc(C)cc4C3=O)c2)cc1 | – | – | 5.44 | 43.3 | 74.2 | > 100 | 7.38 | > 100 | – | – | 31.8 | > 100 | 31.8 | > 100 | 40.4 | > 100 | 7.26 | > 100 | 5.25 | 1.98 |
| COC1=Nc2ccccc2S(=O)(=O)C=C1 | – | 36.9 | 1.95 | – | – | > 100 | – | 24.4 | 0.742 | 15.2 | 0.695 | 4.01 | – | 31.7 | – | 53.4 | – | 27.8 | – | – |
| O=C([O-])c1ccc(C(=O)[O-])cc1.O=C([O-])c1ccc(C(=O)[O-])cc1.[Mo+2].[Mo+2] | > 100 | > 100 | > 100 | > 100 | > 100 | > 100 | > 100 | > 100 | 99.8 | > 100 | > 100 | > 100 | > 100 | > 100 | – | – | > 100 | > 100 | > 100 | > 100 |
| N#CC1(C=O)c2ccccc2C=CN1C(=O)c1ccccc1 (stereo unspecified) | – | > 100 | – | 45.9 | – | – | – | > 100 | – | 65.9 | – | > 100 | – | > 100 | – | – | – | > 100 | 66.5 | – |
| CCOC(=O)NC(=O)c1cn(CCN2CCN(C(=O)CCCCCCCCCCNc3ncnc4nc[nH]c34)CC2)c(=O)[nH]c1=O | – | > 100 | – | > 100 | – | > 100 | – | > 100 | – | > 100 | – | > 100 | – | > 100 | – | – | – | > 100 | > 100 | – |
| CN(C)c1n/c(=N/c2ncn[nH]2)ss1 | – | > 100 | – | > 100 | – | > 100 | – | > 100 | – | > 100 | – | – | – | > 100 | – | – | – | > 100 | > 100 | – |
